tested on: not listed separately; experiment: physchem; settings: buffered solution containing 5% DMSO

| SMILES | pKa at 100 µM |
| --- | --- |
| O=C1C(NCc2ccccc2)=C(NS(=O)(=O)c2ccccc2)C(=O)c2ccccc21 | 10.4 |
| O=C(Cc1ccccc1)NC1=C(c2ccoc2)C(=O)c2ccccc2C1=O | 12.5 |
| O=C1C(NS(=O)(=O)c2ccccc2)=C(c2ccc(Cl)cc2)C(=O)c2ccccc21 | 5 |
| Cc1cc(C)cc(NC2=C(NS(=O)(=O)c3cccc([N+](=O)[O-])c3)C(=O)c3ccccc3C2=O)c1 | 8.6 |
| O=C1C(NS(=O)(=O)c2ccccc2)=C(c2ccco2)C(=O)c2ccccc21 | 5.1 |
| O=C1C(NS(=O)(=O)c2ccccc2)=C(Oc2ccccc2)C(=O)c2ccccc21 | 5 |
| Cc1cc(C)cc(NC2=C(NS(=O)(=O)c3ccc(F)cc3)C(=O)c3ccccc3C2=O)c1 | 9.9 |
| Cc1cc(C)cc(NC2=C(NS(=O)(=O)c3c(F)cccc3F)C(=O)c3ccccc3C2=O)c1 | 8.4 |
| Cc1cc(C)cc(NC2=C(NS(=O)(=O)c3ccccc3C)C(=O)c3ccccc3C2=O)c1 | 9.3 |
| Nc1cccc2c1C(=O)C(NS(=O)(=O)c1ccccc1)=C(Nc1ccccc1)C2=O | 8.2 |
| Cc1cc(C)cc(NC2=C(NS(=O)(=O)c3ccccc3)C(=O)c3cc([N+](=O)[O-])ccc3C2=O)c1 | 8 |
| Cc1cc(C)cc(NC2=C(NS(=O)(=O)c3ccccc3)C(=O)c3c(N)cccc3C2=O)c1 | 8.4 |
| COCCNC1=C(NS(=O)(=O)c2ccccc2)C(=O)c2ccccc2C1=O | 9.8 |
| Cc1cc(C)cc(NC2=C(NS(=O)(=O)c3ccccc3)C(=O)c3ccc([N+](=O)[O-])cc3C2=O)c1 | 7.5 |
| Cc1cc(C)cc(NC2=C(NS(C)(=O)=O)C(=O)c3ccccc3C2=O)c1 | 9.5 |
| O=Cc1cccc(C2=C(NS(=O)(=O)c3ccccc3)C(=O)c3ccccc3C2=O)c1 | 5 |
| O=C1C(NS(=O)(=O)c2ccccc2)=C(c2ccoc2)C(=O)c2ccccc21 | 5 |
| Cc1cc(C)cc(NC2=C(NS(=O)(=O)c3ccccc3)C(=O)c3ccccc3C2=O)c1 | 9.2 |
| Cc1cc(C)cc(NC2=C(NS(=O)(=O)c3ccccc3[N+](=O)[O-])C(=O)c3ccccc3C2=O)c1 | 7.9 |

| SMILES | pKa at 100 µM |
| --- | --- |
| O=C1C(Nc2ccc(Br)cc2)=C(NS(=O)(=O)c2ccccc2)C(=O)c2ccccc21 | 10.4 |
| Cc1cc(C)cc(NC2=C(NS(=O)(=O)c3ccco3)C(=O)c3ccccc3C2=O)c1 | 8.3 |
| O=Cc1cccc(C2=C(NC(=O)Cc3ccccc3)C(=O)c3ccccc3C2=O)c1 | 11.4 |
| O=Cc1ccc(C2=C(NS(=O)(=O)c3ccccc3)C(=O)c3ccccc3C2=O)cc1 | 4.6 |
| O=C1C(Nc2ccccc2)=C(NS(=O)(=O)c2ccccc2)C(=O)c2c1cccc2[N+](=O)[O-] | 8.4 |
| O=C1C(NS(=O)(=O)c2ccccc2)=C(c2cccc(Cl)c2)C(=O)c2ccccc21 | 4.5 |
| O=C1C(NC2CCCC2)=C(NS(=O)(=O)c2ccccc2)C(=O)c2ccccc21 | 10.1 |
| Cc1ccc(S(=O)(=O)NC2=C(Nc3cc(C)cc(C)c3)C(=O)c3ccccc3C2=O)cc1 | 9.7 |
| Cc1cc(C)cc(NC2=C(NS(=O)(=O)Cc3ccccc3)C(=O)c3ccccc3C2=O)c1 | 10 |
| O=Cc1cccc(C2=C(NC(=O)c3ccccc3)C(=O)c3ccccc3C2=O)c1 | 10.9 |
| Cc1cc(C)cc(NC2=C(NS(=O)(=O)c3ccccc3)C(=O)c3c(cccc3[N+](=O)[O-])C2=O)c1 | 8.6 |
| Cc1cc(C)cc(NC2=C(NS(=O)(=O)C3CCCCC3)C(=O)c3ccccc3C2=O)c1 | 10.6 |
| O=C1C(Nc2ccccc2)=C(NS(=O)(=O)c2ccccc2)C(=O)c2ccccc21 | 9.5 |
| Cc1cc(C)cc(OC2=C(NS(=O)(=O)c3ccccc3)C(=O)c3ccccc3C2=O)c1 | 5 |
| Cc1cc(C)cc(NC2=C(NS(=O)(=O)c3ccccc3)C(=O)c3cccc([N+](=O)[O-])c3C2=O)c1 | 8.2 |
| O=C1C(NS(=O)(=O)c2ccccc2)=C(Oc2ccc(Br)cc2)C(=O)c2ccccc21 | 5 |
| O=C(NC1=C(c2ccoc2)C(=O)c2ccccc2C1=O)c1ccccc1 | 12.1 |
| O=C1C(NS(=O)(=O)c2ccccc2)=C(c2ccccc2Cl)C(=O)c2ccccc21 | 4.9 |

molecular target: T1, NAT2 (arylamine N-acetyltransferase 2) (Homo sapiens, UniProt P11245); experiment: in vitro; settings: probe arylamine and AcCoA
T1 sequence (P11245 whole entry): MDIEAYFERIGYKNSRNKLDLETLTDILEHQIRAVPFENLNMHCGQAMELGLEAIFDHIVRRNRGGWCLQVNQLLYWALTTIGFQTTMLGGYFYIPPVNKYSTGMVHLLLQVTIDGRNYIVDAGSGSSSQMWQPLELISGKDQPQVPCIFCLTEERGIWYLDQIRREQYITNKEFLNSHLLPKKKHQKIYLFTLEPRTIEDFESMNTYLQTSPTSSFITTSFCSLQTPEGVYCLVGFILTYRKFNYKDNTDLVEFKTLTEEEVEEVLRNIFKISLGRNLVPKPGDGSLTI

| SMILES | inhibition at 30 µM [%] |
| --- | --- |
| O=Cc1cccc(C2=C(NC(=O)c3ccccc3)C(=O)c3ccccc3C2=O)c1 | > 50 |
| O=C(NC1=C(c2ccoc2)C(=O)c2ccccc2C1=O)c1ccccc1 | > 50 |

molecular target: T2, NAT1 (arylamine N-acetyltransferase 1) (Homo sapiens, UniProt P18440); experiment: in vitro; settings: ZR-75-1 cells, probe arylamine and AcCoA
T2 sequence (P18440 whole entry): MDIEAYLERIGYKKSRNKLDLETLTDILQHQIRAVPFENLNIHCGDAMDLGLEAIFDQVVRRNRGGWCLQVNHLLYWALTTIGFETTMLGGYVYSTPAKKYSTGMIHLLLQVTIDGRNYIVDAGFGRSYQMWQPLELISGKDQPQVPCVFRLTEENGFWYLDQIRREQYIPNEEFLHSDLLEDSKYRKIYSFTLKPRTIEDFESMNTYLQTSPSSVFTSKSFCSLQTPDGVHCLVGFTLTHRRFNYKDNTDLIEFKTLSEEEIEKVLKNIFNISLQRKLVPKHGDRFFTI

| SMILES | inhibition at 1 µM [%] |
| --- | --- |
| Cc1cc(C)cc(NC2=C(NS(=O)(=O)c3ccc(F)cc3)C(=O)c3ccccc3C2=O)c1 | > 50 |
| Cc1cc(C)cc(NC2=C(NS(=O)(=O)c3ccccc3)C(=O)c3c(N)cccc3C2=O)c1 | > 50 |
| Cc1cc(C)cc(NC2=C(NS(=O)(=O)c3ccccc3)C(=O)c3cc(N)ccc3C2=O)c1 | > 50 |
| Cc1cc(C)cc(NC2=C(NS(=O)(=O)c3ccccc3)C(=O)c3ccccc3C2=O)c1 | > 50 |
